Results from ChEMBL document CHEMBL1147004, “Alkynyl pyrimidines as dual EGFR/ErbB2 kinase inhibitors” (Bioorg Med Chem Lett, 2006).

Experiments:
[1] = target: Receptor tyrosine-protein kinase erbB-2 (Homo sapiens, UniProt P04626); assay: Inhibition of ErbB2
[2] = tested on: HFF; assay: Antiproliferative activity against human HFF cell line
[3] = tested on: BT-474; assay: Antiproliferative activity against human BT474 cell line
[4] = target: Epidermal growth factor receptor (Homo sapiens, UniProt P00533)
Epidermal growth factor receptor, sequence (P00533 whole entry): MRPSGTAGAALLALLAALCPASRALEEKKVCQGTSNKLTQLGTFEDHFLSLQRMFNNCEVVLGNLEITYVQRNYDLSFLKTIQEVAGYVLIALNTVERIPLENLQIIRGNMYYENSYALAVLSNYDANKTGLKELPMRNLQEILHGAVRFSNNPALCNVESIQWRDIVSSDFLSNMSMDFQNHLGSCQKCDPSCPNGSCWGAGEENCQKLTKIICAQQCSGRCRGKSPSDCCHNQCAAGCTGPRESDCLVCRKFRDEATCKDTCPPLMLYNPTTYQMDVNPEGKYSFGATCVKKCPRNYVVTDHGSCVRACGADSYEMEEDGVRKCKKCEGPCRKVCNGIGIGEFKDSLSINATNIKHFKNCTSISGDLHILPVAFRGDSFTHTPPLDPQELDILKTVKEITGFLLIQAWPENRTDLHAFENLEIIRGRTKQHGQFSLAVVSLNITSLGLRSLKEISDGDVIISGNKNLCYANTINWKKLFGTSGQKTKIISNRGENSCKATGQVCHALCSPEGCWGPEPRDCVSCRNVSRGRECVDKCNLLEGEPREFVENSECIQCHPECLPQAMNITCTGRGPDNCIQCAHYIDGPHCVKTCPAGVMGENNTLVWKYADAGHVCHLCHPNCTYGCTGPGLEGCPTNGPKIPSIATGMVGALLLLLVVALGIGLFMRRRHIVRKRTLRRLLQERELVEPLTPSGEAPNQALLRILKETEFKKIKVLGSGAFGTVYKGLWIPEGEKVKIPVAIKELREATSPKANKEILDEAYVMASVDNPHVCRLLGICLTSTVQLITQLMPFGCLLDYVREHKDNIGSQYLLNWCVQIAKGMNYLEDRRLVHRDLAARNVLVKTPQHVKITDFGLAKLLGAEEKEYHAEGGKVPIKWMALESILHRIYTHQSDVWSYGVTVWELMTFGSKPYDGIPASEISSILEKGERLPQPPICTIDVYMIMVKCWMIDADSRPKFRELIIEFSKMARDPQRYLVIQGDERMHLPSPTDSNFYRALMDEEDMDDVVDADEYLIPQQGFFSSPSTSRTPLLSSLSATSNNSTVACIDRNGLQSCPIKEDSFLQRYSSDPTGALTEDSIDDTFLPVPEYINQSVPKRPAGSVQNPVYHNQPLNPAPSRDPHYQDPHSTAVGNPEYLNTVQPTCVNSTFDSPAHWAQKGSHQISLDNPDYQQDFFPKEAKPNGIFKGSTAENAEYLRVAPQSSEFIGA

[5] = tested on: HN5; assay: Antiproliferative activity against human HN5 cell line
[6] = Permeability in PAMPA; type: ADME; conditions: read-out: permeability

Receptor tyrosine-protein kinase erbB-2, sequence (P04626 whole entry): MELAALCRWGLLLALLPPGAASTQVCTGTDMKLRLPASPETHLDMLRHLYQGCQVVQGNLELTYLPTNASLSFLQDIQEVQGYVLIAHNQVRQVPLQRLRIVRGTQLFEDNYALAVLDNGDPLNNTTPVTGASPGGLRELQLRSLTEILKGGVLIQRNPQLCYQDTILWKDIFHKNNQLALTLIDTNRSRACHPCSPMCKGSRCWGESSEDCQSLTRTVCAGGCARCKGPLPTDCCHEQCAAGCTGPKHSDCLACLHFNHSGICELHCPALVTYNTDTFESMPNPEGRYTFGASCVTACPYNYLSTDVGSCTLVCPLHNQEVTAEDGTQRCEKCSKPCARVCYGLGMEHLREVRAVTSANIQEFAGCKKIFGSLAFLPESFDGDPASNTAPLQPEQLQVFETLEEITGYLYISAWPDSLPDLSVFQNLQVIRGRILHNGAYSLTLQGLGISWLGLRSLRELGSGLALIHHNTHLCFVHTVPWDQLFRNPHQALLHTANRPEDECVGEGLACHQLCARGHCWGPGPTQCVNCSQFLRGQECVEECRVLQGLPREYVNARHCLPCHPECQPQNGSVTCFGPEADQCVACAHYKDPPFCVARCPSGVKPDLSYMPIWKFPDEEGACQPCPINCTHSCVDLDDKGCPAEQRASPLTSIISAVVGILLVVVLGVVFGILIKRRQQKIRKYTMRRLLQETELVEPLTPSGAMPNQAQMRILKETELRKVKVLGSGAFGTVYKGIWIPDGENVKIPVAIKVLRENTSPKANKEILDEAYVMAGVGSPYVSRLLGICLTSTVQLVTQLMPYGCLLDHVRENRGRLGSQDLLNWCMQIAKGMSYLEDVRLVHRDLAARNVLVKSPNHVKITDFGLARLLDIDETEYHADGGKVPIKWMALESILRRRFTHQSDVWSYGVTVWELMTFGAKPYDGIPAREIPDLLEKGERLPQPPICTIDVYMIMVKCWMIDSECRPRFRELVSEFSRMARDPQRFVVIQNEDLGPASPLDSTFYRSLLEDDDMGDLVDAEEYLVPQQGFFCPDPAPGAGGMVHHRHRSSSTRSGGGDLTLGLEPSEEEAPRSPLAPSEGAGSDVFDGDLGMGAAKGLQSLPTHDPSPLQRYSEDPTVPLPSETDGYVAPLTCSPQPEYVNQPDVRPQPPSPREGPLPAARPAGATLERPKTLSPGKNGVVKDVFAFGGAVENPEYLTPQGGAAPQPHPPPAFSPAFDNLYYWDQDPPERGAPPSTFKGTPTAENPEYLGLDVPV

Row | Compound | IC50 [1] | IC50 [2] | IC50 [3] | IC50 [4] | IC50 [5] | Papp [6]
1 | OCc1cccc(C#Cc2cncnc2Nc2ccc(OCc3cccc(F)c3)c(Cl)c2)n1 | 13 nM | > 30000 nM | 5790 nM | – | – | –
2 | Nc1nccc(C#Cc2cncnc2Nc2ccc(OCc3cccc(F)c3)c(Cl)c2)n1 [GW799251X] | 12 nM | – | – | – | – | –
3 | OCc1nc(C#Cc2cncnc2Nc2ccc(OCc3cccc(F)c3)c(Cl)c2)cs1 | 160 nM | – | – | 76 nM | – | –
4 | CS(=O)(=O)CCC(=O)Nc1cccc(C#Cc2cncnc2Nc2ccc(OCc3cccc(F)c3)c(Cl)c2)c1 | 32 nM | – | – | 50 nM | – | –
5 | CS(=O)(=O)Nc1cccc(C#Cc2cncnc2Nc2ccc(OCc3cccc(F)c3)c(Cl)c2)c1 | 45 nM | – | – | 110 nM | – | –
6 | Fc1cccc(COc2ccc(Nc3ccncn3)cc2Cl)c1 | 21000 nM | – | – | 320 nM | – | –
7 | Fc1cccc(COc2ccc(Nc3ncncc3C#Cc3cc[nH]n3)cc2Cl)c1 | 66 nM | – | – | 42 nM | – | –
8 | Nc1ccccc1C#Cc1cncnc1Nc1ccc(OCc2cccc(F)c2)c(Cl)c1 | 91 nM | – | – | 63 nM | – | –
9 | CC(=O)Nc1ccc(C#Cc2cncnc2Nc2ccc(OCc3cccc(F)c3)c(Cl)c2)cc1 | 1820 nM | – | – | 25100 nM | – | –
10 | Nc1cccc(C#Cc2cncnc2Nc2ccc(OCc3cccc(F)c3)c(Cl)c2)c1 | 44 nM | – | – | 42 nM | – | –
11 | C#Cc1cncnc1Nc1ccc(OCc2cccc(F)c2)c(Cl)c1 | 3800 nM | – | – | 85 nM | – | –
12 | CC(=O)NCc1cccc(C#Cc2cncnc2Nc2ccc(OCc3cccc(F)c3)c(Cl)c2)c1 [GW807930X] | 52 nM | – | – | 60 nM | – | –
13 | CNC(=O)NCc1cccc(C#Cc2cncnc2Nc2ccc(OCc3cccc(F)c3)c(Cl)c2)n1 | 69 nM | – | – | 23 nM | – | –
14 | Fc1cccc(COc2ccc(Nc3ncncc3C#Cc3cccnc3)cc2Cl)c1 | 140 nM | – | – | 74 nM | – | –
15 | OCc1ccc(C#Cc2cncnc2Nc2ccc(OCc3cccc(F)c3)c(Cl)c2)o1 | 47 nM | 15800 nM | 2040 nM | 33 nM | 930 nM | –
16 | Nc1ccc(C#Cc2cncnc2Nc2ccc(OCc3cccc(F)c3)c(Cl)c2)cc1 [GW659893X] | 36 nM | – | – | 30 nM | – | –
17 | CC(=O)Nc1cccc(C#Cc2cncnc2Nc2ccc(OCc3cccc(F)c3)c(Cl)c2)n1 [GW794726X] | 59 nM | – | – | 91 nM | – | –
18 | Fc1cccc(COc2ccc(Nc3ncncc3C#Cc3ccccc3)cc2Cl)c1 [GW651576X] | 780 nM | – | – | 79 nM | – | –
19 | CS(=O)(=O)CCNC(=O)NCc1cccc(C#Cc2cncnc2Nc2ccc(OCc3cccc(F)c3)c(Cl)c2)n1 | 9 nM | > 30000 nM | 840 nM | 15 nM | 770 nM | –
20 | Fc1cccc(COc2ccc(Nc3ncncc3C#Cc3ncccn3)cc2Cl)c1 | 60 nM | – | – | 77 nM | – | –
21 | COC(=O)CCCC(=O)Nc1cccc(C#Cc2cncnc2Nc2ccc(OCc3cccc(F)c3)c(Cl)c2)c1 | 29 nM | 22400 nM | 4240 nM | 31 nM | 3470 nM | –
22 | Fc1cccc(COc2ccc(Nc3ncncc3C#Cc3ccccn3)cc2Cl)c1 | 55 nM | – | – | 17 nM | – | –
23 | NCc1cccc(C#Cc2cncnc2Nc2ccc(OCc3cccc(F)c3)c(Cl)c2)n1 | 38 nM | – | – | 21 nM | – | –
24 | CNC(=O)c1cccc(C#Cc2cncnc2Nc2ccc(OCc3cccc(F)c3)c(Cl)c2)c1 [GW772405X] | 32 nM | – | – | 79 nM | – | –
25 | CC(=O)Nc1cccc(C#Cc2cncnc2Nc2ccc(OCc3cccc(F)c3)c(Cl)c2)c1 [GW703087X] | 13 nM | > 30000 nM | 21600 nM | 12 nM | 13700 nM | < 0.3 ×10⁻⁶ cm/s
